From patent US20090221522A1, “METHODS TO CORRECT GENE SET EXPRESSION PROFILES TO DRUG SENSITIVITY” (The Johns Hopkins University, priority 2008, published 2009)

System: direct pancreatic cancer xenografts (fine needle aspiration cells)
Assay: Ex vivo perturbability assay, low-density microarray RT-PCR
Type: cell-based
Set-up: key to RRM1 gene expression / NFKB1 gene expression / BNIP3L gene expression / VHL gene expression / DCK gene expression / HIF1B gene expression / IGF1R gene expression / MAPK1 gene expression / MAP2K2 gene expression / JUN gene expression / IHH gene expression: % of untreated control (treated sample normalized to untreated)
Settings: treated normalized to untreated control
From the text: Direct pancreatic cancer derived xenografts: Resected pancreatic adenocarcinomas are routinely implanted in nude mice at the Johns Hopkins Medical Institutions as a method to obtain enriched populations of neoplastic cells under an IRB-approved protocol from residual pancreatic cancer tumors. Tumor specimens from Whipple resection specimens were divided into 2-3 mm^3 pieces in antibiotic-containing RPMI media. Pieces of non-necrotic tissue were selected and immersed in Matrigel. Under anesthesia with isofluorane, tumors were implanted into five-to-six week-old female athymic (nu/nu) mice purchased from Harlan (Harlan Laboratories, Washington, D.C.). This research protocol was approved by the Johns Hopkins University Animal Use and Care Committee arid animals were maintained in accordance to guidelines of the American Association of Laboratory Animal Care. Tumors were propagated to subsequent cohorts of mice until a sufficient number were available for drug testing.
Fine needle aspiration (FNA): FNAs on mice were performed according to standard cytopathologic practice using 10 cc syringes and 25-gauge needles. The procedure was performed under inhaled general anesthesia with isofluorane. During each FNA procedure the first pass was smeared onto glass slides and used for morphologic analysis and quality control, (DiffQuik™ and Papanicoloau), and the second through sixth passes were used to acquire viable cells.
Ex vivo assay: FNA passes used to acquire viable cells were immediately transferred into 10 ml sterile prewarmed complete RPMI-1640 culture medium containing 10% FBS, penicillin (200 ug/ml), and streptomycin (200 ug/ml). Equivalent aliquots of cells were seeded in two wells of a 6-well polypropylene microplate. […] Following treatment, non-adherent and adherent cells (collected by scraping) were pooled together in a 1.5 mL microcentrifuge tube and centrifuged at 500 g for 5 mm at 4° C. After washing with PBS, cells were lysed in 100 μL of ice-cold RLT.
RNA extraction and cDNA generation: Total RNA was extracted from cells using the RNeasy™ Mini Kit (Qiagen, Valencia, Calif.) following the manufacturer's instructions. cDNA was synthesized using iScript cDNA synthesis kit (Bio-Rad) following the manufacturer's instructions.
Low-density micro arrays (LDMA): The samples were run in a customized assay with a 384-well format (ABI, Foster City, Calif.), where the expression of 45 to 381 relevant genes can be quantitatively tested. For this example, the array was designed with 8 replicated sections containing 48 wells, with primers of one gene per well: 3 housekeeping genes (HK: UBC, HPRT, SDHA), and 45 genes of interest. 50 μL of cDNA plus 50 μL of ABI mastermix were loaded onto each of two contiguous lanes to have duplicated readouts of every sample, and were run by real-time reverse transcriptase PCR (RT-PCR). The amount of change in the target genes was calculated by comparing the threshold cycle (CT) of each gene to the geometric mean of the CTs of the HK genes. Relative expression of the target genes was estimated using the formula: relative expression=2−^ΔCT, where ΔCT=CT (target gene)−CT (average of the 3 HK genes). The experiment was run in duplicate and mean values are analyzed.
Data analysis: The expression level of each gene in the treated sample was normalized to that of the untreated control. A significant change was defined when the gene expression either increases two-fold or more (>200%), or decreases to half or more (<50%). The rest is considered uninformative.

Compound: Nc1ccn([C@@H]2O[C@H](CO)[C@@H](O)C2(F)F)c(=O)n1 [gemcitabine]
- AXIN2 gene expression (case #1): 67
- BAX gene expression (case #1): 91
- BNIP3L gene expression (case #1): 109
- BRAF gene expression (case #1): 116
- BRCA1 gene expression (case #1): 81
- CCND1 gene expression (case #1): 127
- CXCR4 gene expression (case #1): 100
- CyclinB1 gene expression (case #1): 68
- DCK gene expression (case #1): 164
- EGFR gene expression (case #1): 124
- ERCC1 gene expression (case #1): 107
- FOS gene expression (case #1): 113
- GADD45A gene expression (case #1): 108
- GLI2 gene expression (case #1): 72
- HIF1A gene expression (case #1): 126
- HIF1B gene expression (case #1): 99
- IGF1R gene expression (case #1): 51
- IGFBP3 gene expression (case #1): 135
- IHH gene expression (case #1): 113
- MAP2K2 gene expression (case #1): 127
- MAPK3 gene expression (case #1): 152
- MDM2 gene expression (case #1): 134
- MSLN gene expression (case #1): 101
- NOTCH1 gene expression (case #1): 158
- NOTCH2 gene expression (case #1): 113
- PLK1 gene expression (case #1): 50
- PSCA gene expression (case #1): 106
- PTCH gene expression (case #1): 81
- SHH gene expression (case #1): 70
- Survivin gene expression (case #1): 81
- TGFA gene expression (case #1): 99
- VEGF gene expression (case #1): 106
- VHL gene expression (case #1): 104
- p21 gene expression (case #1): 96
- AXIN2 gene expression (case #2): 63
- BAX gene expression (case #2): 95
- BNIP3L gene expression (case #2): 96
- BRAF gene expression (case #2): 98
- BRCA1 gene expression (case #2): 63
- CCND1 gene expression (case #2): 128
- CXCR4 gene expression (case #2): 5
- CyclinB1 gene expression (case #2): 99
- DCK gene expression (case #2): 112
- EGFR gene expression (case #2): 101
- ERCC1 gene expression (case #2): 78
- FOS gene expression (case #2): 115
- GADD45A gene expression (case #2): 108
- GLI2 gene expression (case #2): 82
- HIF1A gene expression (case #2): 111
- HIF1B gene expression (case #2): 129
- IGF1R gene expression (case #2): 105
- IGFBP3 gene expression (case #2): 205
- IHH gene expression (case #2): 131
- MAP2K2 gene expression (case #2): 78
- MAPK1 gene expression (case #2): 104
- MAPK3 gene expression (case #2): 71
- MDM2 gene expression (case #2): 92
- MSLN gene expression (case #2): 118
- NFKB1 gene expression (case #2): 138
- NOTCH1 gene expression (case #2): 138
- NOTCH2 gene expression (case #2): 119
- PLK1 gene expression (case #2): 34
- PSCA gene expression (case #2): 127
- PTCH gene expression (case #2): 102
- RRM1 gene expression (case #2): 166
- SHH gene expression (case #2): 108
- Survivin gene expression (case #2): 110
- TGFA gene expression (case #2): 113
- VEGF gene expression (case #2): 101
- VHL gene expression (case #2): 116
- p21 gene expression (case #2): 110
- AXIN2 gene expression (case #3): 44
- BAX gene expression (case #3): 78
- BNIP3L gene expression (case #3): 82
- BRAF gene expression (case #3): 93
- BRCA1 gene expression (case #3): 84
- CCND1 gene expression (case #3): 106
- CXCR4 gene expression (case #3): 43
- CyclinB1 gene expression (case #3): 48
- DCK gene expression (case #3): 80
- EGFR gene expression (case #3): 70
- ERCC1 gene expression (case #3): 88
- FOS gene expression (case #3): 123
- GADD45A gene expression (case #3): 104
- GLI2 gene expression (case #3): 73
- HIF1A gene expression (case #3): 106
- HIF1B gene expression (case #3): 106
- IGF1R gene expression (case #3): 66
- IGFBP3 gene expression (case #3): 49
- IHH gene expression (case #3): 130
- MAP2K2 gene expression (case #3): 106
- MAPK3 gene expression (case #3): 109
- MDM2 gene expression (case #3): 137
- MSLN gene expression (case #3): 91
- NFKB1 gene expression (case #3): 94
- NOTCH1 gene expression (case #3): 132
- NOTCH2 gene expression (case #3): 103
- PLK1 gene expression (case #3): 36
- PSCA gene expression (case #3): 115
- PTCH gene expression (case #3): 53
- RRM1 gene expression (case #3): 81
- SHH gene expression (case #3): 65
- Survivin gene expression (case #3): 58
- TGFA gene expression (case #3): 92
- VEGF gene expression (case #3): 86
- VHL gene expression (case #3): 118
- p21 gene expression (case #3): 99
- AXIN2 gene expression (case #4): 142
- BAX gene expression (case #4): 100
- BNIP3L gene expression (case #4): 115
- BRAF gene expression (case #4): 175
- BRCA1 gene expression (case #4): 343
- CCND1 gene expression (case #4): 171
- CXCR4 gene expression (case #4): 13
- CyclinB1 gene expression (case #4): 124
- DCK gene expression (case #4): 176
- EGFR gene expression (case #4): 54
- ERCC1 gene expression (case #4): 94
- FOS gene expression (case #4): 108
- GADD45A gene expression (case #4): 78
- GLI2 gene expression (case #4): 11
- HIF1A gene expression (case #4): 146
- HIF1B gene expression (case #4): 56
- IGF1R gene expression (case #4): 41
- IGFBP3 gene expression (case #4): 130
- IHH gene expression (case #4): 92
- JUN gene expression (case #4): 83
- MAP2K2 gene expression (case #4): 146
- MAPK1 gene expression (case #4): 68
- MAPK3 gene expression (case #4): 108
- MDM2 gene expression (case #4): 43
- MSLN gene expression (case #4): 89
- NFKB1 gene expression (case #4): 104
- NOTCH1 gene expression (case #4): 134
- NOTCH2 gene expression (case #4): 92
- PLK1 gene expression (case #4): 15
- PSCA gene expression (case #4): 81
- PTCH gene expression (case #4): 93
- RRM1 gene expression (case #4): 79
- SHH gene expression (case #4): 91
- Survivin gene expression (case #4): 166
- TGFA gene expression (case #4): 85
- VEGF gene expression (case #4): 103
- VHL gene expression (case #4): 127
- p21 gene expression (case #4): 102
- AXIN2 gene expression (case #5): 210
- BAX gene expression (case #5): 109
- BNIP3L gene expression (case #5): 90
- BRAF gene expression (case #5): 146
- BRCA1 gene expression (case #5): 95
- CCND1 gene expression (case #5): 141
- CXCR4 gene expression (case #5): 229
- CyclinB1 gene expression (case #5): 53
- DCK gene expression (case #5): 132
- EGFR gene expression (case #5): 71
- ERCC1 gene expression (case #5): 105
- FOS gene expression (case #5): 112
- GADD45A gene expression (case #5): 121
- GLI2 gene expression (case #5): 118
- HIF1A gene expression (case #5): 108
- HIF1B gene expression (case #5): 65
- IGF1R gene expression (case #5): 61
- IGFBP3 gene expression (case #5): 122
- IHH gene expression (case #5): 141
- JUN gene expression (case #5): 135
- MAP2K2 gene expression (case #5): 151
- MAPK1 gene expression (case #5): 86
- MAPK3 gene expression (case #5): 95
- MDM2 gene expression (case #5): 73
- MSLN gene expression (case #5): 100
- NFKB1 gene expression (case #5): 163
- NOTCH1 gene expression (case #5): 89
- NOTCH2 gene expression (case #5): 56
- PLK1 gene expression (case #5): 21
- PSCA gene expression (case #5): 102
- PTCH gene expression (case #5): 48
- RRM1 gene expression (case #5): 92
- SHH gene expression (case #5): 113
- Survivin gene expression (case #5): 67
- TGFA gene expression (case #5): 97
- VEGF gene expression (case #5): 107
- VHL gene expression (case #5): 79
- p21 gene expression (case #5): 143
